“Also recorded” adds a separate entry of the source.
Experiments:
[1] = biological target: T1, reduced PTP1B (Homo sapiens, UniProt P18031); assay: phosphatase activity of reduced PTP1B, DiFMUP substrate; type: biochemical
T1 construct: Purified PTP1B (1–321) (100 nM) was mixed with increasing concentrations of H2O2; 6xHis (C); made in house; host or cells: E. coli BL21 (DE3)-RIL
T1 sequence (P18031 1-321): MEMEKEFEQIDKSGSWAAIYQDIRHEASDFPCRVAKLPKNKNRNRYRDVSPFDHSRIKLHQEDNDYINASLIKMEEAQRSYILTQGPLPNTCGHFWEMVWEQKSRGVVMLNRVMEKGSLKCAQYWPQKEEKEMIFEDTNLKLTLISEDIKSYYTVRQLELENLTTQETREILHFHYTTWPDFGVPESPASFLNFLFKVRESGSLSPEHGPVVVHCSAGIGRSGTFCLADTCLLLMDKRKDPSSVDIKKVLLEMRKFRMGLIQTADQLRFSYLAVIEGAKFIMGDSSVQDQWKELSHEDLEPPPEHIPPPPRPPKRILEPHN
Procedure: Fig. 4 Identification and characterization of small molecules that mimic the effect of scFv45. a Reversibly oxidized PTP1B (PTP1B-OX) was generated by incubation with H2O2 in vitro, desalted, then assayed (20 nM) in the presence and absence of individual members of the LOPAC library. In the right panel, each dot represents an activity measurement. […] Data are representative of at least two independent experiments (n = 2). b Increasing concentration of sanguinarine was tested against reduced (circle) and oxidized (square) forms of PTP1B, using DiFMUP as substrate. c Increasing concentration of levamisole was tested against reduced (circle) and oxidized (square) PTP1B, using DiFMUP as substrate. d PTP1B-OX (200 nM) was incubated with sanguinarine (25 µM) for 5 min and the complex was diluted 100-fold and the activity was monitored for 120 min continuously. e PTP1B-OX (200 nM) was incubated with levamisole (40 µM) for 5 min and the complex was diluted 100-fold and the activity was monitored for 120 min continuously. f Increasing concentration of chelerythrine, an analog of sanguinarine, was tested against reduced (circle) and oxidized (square) forms of PTP1B, using DiFMUP as substrate. […] Individual data points represent the mean obtained from three separate experiments (n = 3; b–g)
Purified PTP1B (1–321) (100 nM) was mixed with increasing concentrations of H2O2 (0.05–100 mM) in phosphatase assay buffer (50 mM HEPES, pH 7.0, 100 mM NaCl, 0.1% BSA) at room temperature for 5 min. From this reaction mixture PTP1B (10 nM) was used to monitor phosphatase activity using DiFMUP as the substrate, with or without 5 mM TCEP. Activity of each sample was compared to that of the untreated PTP1B in the presence of 5 mM TCEP.

[2] = test system: leptin signaling in hepatic stellate cells; assay: leptin signaling in hepatic stellate cells (immunoblot); type: cell-based, human; details: for effect on JAK2 phosphorylation in presence of apocynin: NOX inhibitor apocynin; for leptin-induced tyrosine phosphorylation of JAK2: chelerythrine 0–5 μM or ectopic scFv45
Procedure: Human hepatic stellate cells (HSteCs; ScienCell research laboratories, CA) were cultured according to manufacturer’s instructions. Cells were seeded on poly-L-lysine coated dishes and maintained in Stellate Cell Medium (SteCM, Cat. #5301). When cells reached 70% confluency they were split for various experiments. To study leptin signaling, HSCs were incubated in serum-free DMEM for 24 h and then stimulated with varying concentration of leptin (0, 10, 25, 50, 100, and 200 ng ml^−1) for 15 min. To study the effect of chelerythrine and protopine, serum starved cells were incubated with the compounds at varying concentrations (0–5 µM) for 1 h prior to leptin stimulation. In some groups, cells were pre-incubated (60 min) with the NADPH oxidase inhibitor apocynin (100 nM), before stimulation with leptin.

[3] = biological target: T2, PTP1B-OX (Homo sapiens, UniProt P18031); assay: reduction and reactivation of reversibly oxidized PTP1B by TCEP, DiFMUP substrate; type: biochemical
T2 construct: Purified PTP1B (1–321) (100 nM) was mixed with increasing concentrations of H2O2; 6xHis (C); made in house; host or cells: E. coli BL21 (DE3)-RIL
T2 sequence (P18031 1-321): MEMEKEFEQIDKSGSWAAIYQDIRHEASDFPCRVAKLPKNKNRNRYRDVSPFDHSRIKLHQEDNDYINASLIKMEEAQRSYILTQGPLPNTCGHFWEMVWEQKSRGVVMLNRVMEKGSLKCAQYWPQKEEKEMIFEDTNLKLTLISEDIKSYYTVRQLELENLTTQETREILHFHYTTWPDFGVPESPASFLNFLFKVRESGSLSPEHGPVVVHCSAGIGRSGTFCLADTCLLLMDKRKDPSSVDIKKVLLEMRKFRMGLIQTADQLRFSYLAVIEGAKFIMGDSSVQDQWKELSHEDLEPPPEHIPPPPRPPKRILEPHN

[4] = test system: insulin signaling in liver, leptin signaling in hypothalamus; assay: insulin and leptin signaling in liver and hypothalamus lysates of treated mice; type: in vivo; details: HFD mice
Procedure: Fig. 9 Chelerythrine improved metabolism and promoted insulin and leptin signaling in mice. a Body weight of male mice (C57bl6/J) fed high fat diet and treated with chelerythrine (3 mg kg^−1), protopine (3 mg kg^−1) or saline was monitored from the beginning of the treatment (10 weeks of age) until the study was terminated (14 weeks of age). Data represent the mean ± s.e.m. (n = 10 in each group). b HFD fed 14-week-old male mice treated with saline or chelerythrine were administered D-glucose (2 mg g^−1 body weight), and blood glucose was monitored over the defined time. Data represent the mean ± s.e.m. (n = 10 in each group) and statistical analysis was performed using two-way ANOVA (*p < 0.05, **p < 0.01). c HFD fed 14-week-old male mice treated with saline or chelerythrine were administered insulin (0.75 mU g^−^1 body weight), and blood glucose was monitored over the defined time. Data represent mean ± s.e.m. (n = 10 in each group) and statistical analysis was performed using two-way ANOVA (*p < 0.05). d Representative immunoblots showing insulin-induced tyrosine phosphorylation of IR-β and phosphorylation of AKT, and their corresponding total protein levels, in liver tissue lysates from 14-week-old male mice treated with saline, chelerythrine or protopine. For insulin stimulation, animals were treated with insulin (0.75 mU g^−1, i.p.) for 15 min. e Representative immunoblots showing leptin-induced tyrosine phosphorylation of JAK2 and corresponding total JAK2 levels in the hypothalamus tissue lysates from 14-week-old male mice treated with saline, chelerythrine or protopine. For leptin stimulation, animals were treated with leptin (1 mg kg^−^1, s.c.) for 15 min. All immunoblots are representative of tissue lysates generated from at least three independent animals for each condition (n = 3). Immunoblots were quantified using ImageJ software. Quantitation includes all independent data from the respective experiments and is presented as the mean ± s.e.m. d, e Statistical analysis was performed using two-way ANOVA (*p < 0.05)
Animal experiments were performed according to protocols approved by the Institutional Animal Use and Care Committee of Cold Spring Harbor laboratory. Ten week-old male C57bl6/J mice fed chow diet or high fat diet (D12492) were acclimatized for 10 days under standard conditions before experiments. Mice were intraperitoneally (i.p.) injected once daily with vehicle, 3 mg kg^−1 of chelerythrine or 3 mg kg^−1 of protopine for 30 days. Mice were killed after 6 h of fasting, and serum samples were collected to measure the metabolic parameters and tissue samples were collected for studying changes in signaling. No animals were excluded from the analysis.

[5] = insulin 0.75 mU g−1 i.p. 15 min

COc1ccc2c(c[n+](C)c3c4cc5c(cc4ccc23)OCO5)c1OC [chelerythrine]
inhibition of the reduced form of PTP1B [1]: no apparent inhibition; also recorded: did not inhibit
effect on JAK2 phosphorylation in presence of apocynin [2]: attenuated
leptin-induced tyrosine phosphorylation of JAK2 [2]: dose-dependent increase
reversibility of PTP1B-OX inhibition ([3]; complex diluted 100-fold, activity monitored 120 min): reversible
AKT phosphorylation in liver [4, 5]: enhanced
IR-β phosphorylation in liver [4, 5]: marked increase
phosphorylation of JAK2 in hypothalamus ([4]; leptin 1 mg kg−1 s.c. 15 min): enhanced phosphorylation of JAK2

CN1CCc2cc3c(cc2C(=O)Cc2ccc4c(c2C1)OCO4)OCO3 [protopine]
inhibition of the reduced form of PTP1B [1]: did not inhibit; also recorded: ineffective
IR-β phosphorylation in liver [4, 5]: not observed

B1: scFv45: recombinant conformation-sensor single-chain variable fragment antibody recognizing oxidized PTP1B (antibody, V domains shown)
VH: TVTLDESGGGLQAPGGALSLVCKASGFTFSSYDMGWIRQAPGKGLEYVAGITDNGRYASYGSAVDGRATISRDNGQSSVRLQLNNLRAEDTGTYYCARDDGSGWTGNSIDAWGHGTEVIVSE
VL: ALTQPSSVSANPGGTVKITCSGSSSAYGYGWYQQKSPGSAPVTVIYNNNKRPSNIPSRFSGSKSGSTGTLTITGVQAEDEAVYFCGSEDSSTDAIFGAGTTLTVL
effect on JAK2 phosphorylation in presence of apocynin [2]: abrogated
leptin-induced tyrosine phosphorylation of JAK2 [2]: enhanced phosphorylation of JAK2
Ki ([3]; intrabodies, phosphatase activity, read-out: Ki against oxidized PTP1B-wt): 10 nM

From publication PMC5773487, “Harnessing insulin- and leptin-induced oxidation of PTP1B for therapeutic development” (Nature Communications, 2018)
